Test results from paper PMC9394284, “Discovery of Novel Dual Adenosine A2A and A1 Receptor Antagonists with 1H-Pyrazolo[3,4-d]pyrimidin-6-amine Core Scaffold as Anti-Parkinson’s Disease Agents” (Pharmaceuticals, 2022).

Experiments:
hA1 receptor = target: T1, hA1 receptor (Homo sapiens, UniProt P30542); assay: radioligand binding to human A1 receptors, CHO-K1 membranes, [3H]DPCPX
T1 sequence (P30542 1-326): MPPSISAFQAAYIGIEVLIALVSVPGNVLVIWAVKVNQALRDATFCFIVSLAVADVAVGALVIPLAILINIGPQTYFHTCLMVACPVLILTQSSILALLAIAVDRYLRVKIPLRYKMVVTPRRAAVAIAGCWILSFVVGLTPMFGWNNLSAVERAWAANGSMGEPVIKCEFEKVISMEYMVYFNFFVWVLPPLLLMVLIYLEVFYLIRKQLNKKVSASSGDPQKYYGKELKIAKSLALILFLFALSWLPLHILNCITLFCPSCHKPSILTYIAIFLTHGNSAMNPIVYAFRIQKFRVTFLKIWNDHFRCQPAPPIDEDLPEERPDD
Description: The radioligand-binding assays for adenosine receptors were performed at Eurofins Discovery Services (Panlabs, Taiwan). Briefly, stock solutions of the compounds were prepared in DMSO and further diluted with the incubation buffer to the desired concentration. Final DMSO concentrations in the assay were 1.0%. For adenosine A1 screening, a 10 μg aliquots of membrane preparations from human recombinant CHO-K1 cells stably expressing A1 receptors (CHO-K1-hA1AR clone3, EPDST, R200510) were incubated with 1 nM [^3H]DPCPX in incubation buffer (20 mM HEPES, pH 7.4, 10 mM MgCl2, 100 mM NaCl 1.40 nM) for 90 min at 25 °C. Nonspecific binding was estimated in the presence of 100 μM R(-)-PIA. Membranes were filtered and washed 3 times and the filters were counted to determine specifically bound [^3H]DPCPX. Chemical compounds were screened at 10 μM. For A2A screening, membrane preparations from human recombinant HEK-293 cells stably expressing A2A receptors (PerkinElmer, RBHA2AM) were incubated with 0.05 μM [^3H]CGS-21680 in incubation buffer (50 mM Tris-HCl, pH 7.4, 10 mM MgCl2, 1 mM EDTA, 2 U/mL Adenosine Deaminase) for 90 min at 25 °C. Nonspecific binding was estimated in the presence of 50.0 μM NECA. Membranes were filtered and washed 3 times and the filters were counted to determine [^3H]CGS-21680 specifically bound. For A2B screening, membrane preparations from human recombinant HEK-293 cells stably expressing A2B receptors (PerkinElmer, ES-013-M) were incubated with 1.6 nM [^3H]MRS1754 in incubation buffer (50 mM Tris-HCl, pH 6.5, 5 mM MgCl2, 1 mM EDTA, 0.01 % Bacitracin) for 90 min at 25 °C. Nonspecific binding was estimated in the presence of 100 μM NECA. Membranes were filtered and washed 3 times and the filters were counted to determine [^3H]MRS1754 specifically bound. For A3 screening, membrane preparations from human recombinant CHO-K1 cells stably expressing A3 receptors (PerkinElmer, ES-012-M) were incubated with 0.5 nM [^125I]AB-MECA in incubation buffer (25 mM HEPES, pH 7.4, 5 mM MgCl2, 1 mM CaCl2, 0.1 % BSA) for 60 min at 25 °C. Nonspecific binding was estimated in the presence of 1.0 μM IB-MECA.
IC50 values were determined by a nonlinear, least-squares regression analysis using MathIQ^TM (ID Business Solutions Ltd., Guildford, UK). Where inhibition constants (Ki) were presented, the Ki values were calculated using Cheng and Prusoff equation [18] using the observed IC50 of the compound, the concentration of radioligand employed in the assay, and the historical values for the KD of the ligand (obtained experimentally at Eurofins Panlabs, Inc.). The Hill coefficient (nH), which defines the slope of the competitive binding curve, was calculated using MathIQ^TM.

[1] = metabolic stability in cryopreserved human hepatocytes
Description: Metabolic stability of 11o was determined in cryopreserved hepatocytes from mice, rats, dogs, monkeys and human according to the SOPs of Frontage Laboratories Inc. Briefly, cryopreserved hepatocytes for pre-clinical animals and for human (BioIVT, Westbury, NY, USA) were thawed in a 37 °C water bath with gentle shaking until ice had almost melted. The suspensions were immediately transferred to a centrifuge tube (50 mL) containing pre-warmed thawing media at 37 °C with gentle handshaking to prevent the cells from settling. Cell suspensions were centrifuged at 50× g and 4 °C for 5 min. The supernatant was discarded and the pellets were resuspended in prewarmed incubation media (5 mL) at 37 °C. The percentage of viable cells in the suspension was determined by Trypan blue staining method to ensure viability of ≥70 %. […] The samples were centrifuged and aliquots of the supernatant were analyzed for parent compounds by LC/MS/MS using suitable multiple reaction monitoring (MRM) transitions. […] The disappearance of 11o and midazolam was monitored by LC/MS/MS (MRM) analysis of the hepatocyte extracts at each time point. The peak area ratio of the analyte to internal standard was obtained for each sample and the rate of disappearance of 11o was assessed by comparing the peak area ratios at various time points to the peak area ratio obtained at t = 0. The t1/2 is obtained (using the linear portion of semi-log plot of the area ratio vs. time) and the CLint values determined using well-stirred model.

[2] = test system: haloperidol-induced catalepsy; assay: haloperidol-induced catalepsy in female rats (bar test); type: in vivo, Sprague Dawley rats
Description: Vehicle or varying amount of 11o (0.3, 1, 3, 10 mg/kg) was administered first, followed by IP injection of 1 mg/kg haloperidol 60 min later.
A total of 120 female Sprague Dawley rats (275~300 g) were purchased from Charles River Laboratories (Charles River, Senneville, QC, Canada) and maintained at Atuka, Inc. All animal studies were conducted at Atuka, Inc. according to CCAC guidelines and under IACUC-approved Animal Use Protocols (AUPs), with IACUC number 6606.0.3 for this study.
The catalepsy study incorporated 12 groups of rats. Ten rats were incorporated into each treatment group (total N = 120 rats). Treatments were divided over 3 consecutive treatment blocks and the order of treatments were randomized within each block and all treatments completed within that block before proceeding to the next. […] Catalepsy was assessed a further 60 min later (t = 120).
Behavior was evaluated in each animal by assessing performance on the bar test. Catalepsy was assessed 60 min following haloperidol administration (120 min following administration of vehicle, 11o or istradefylline). […] The time taken for the animal to remove both paws (decent latency) from the rod and place them back on the surface, in seconds was determined. The test was conducted in triplicate and the average of the three tests were calculated.

[3] = average of duplicate experiments
[4] = human, cryopreserved hepatocytes in suspension

## Cc1cc(Cn2ncc3c(-c4cccc(C#N)c4F)nc(N)nc32)ccc1N [11o, 3-(6-Amino-1-(4-amino-3-methylbenzyl)-1H-pyrazolo[3,4-d]pyrimidin-4-yl)-2-fluorobenzonitrile]
hA1 receptor
  nH (Hill coefficient), A1: 1.17
hA1 receptor; [3]
  IC50: 0.094 µM
  Ki: 0.055 µM
[1]; human hepatocytes, 1 μM 11o
  Extrapolated Clearance, CL: 9.58 mL/min/kg
  Intrinsic Clearance: 0.00377 mL/min/10^6 Cells
[1]; [4]
  half-life at 1 μM: 3.07 h
  hepatocyte CLint at 1 μM: 3.8 µL/min/1e6 cells
[1]; human, cryopreserved hepatocytes in suspension, Extrapolated Clearance, CL, human hepatocytes, 1 μM 11o
  CLint scaled at 1 μM: 9.6 mL/min/kg
[1]; human, hepatocytes
  CLint in human hepatocytes relative to midazolam: less than 40 % of midazolam
[2]; 0.3, 1, 3, 10 mg/kg PO, maximum effect at 10 mg/kg, comparable to istradefylline 1 mg/kg
  reversal of haloperidol-induced catalepsy (latency to step down): dose-dependently reversed haloperidol-induced catalepsy
[2]; Rattus norvegicus, PO 60 min before haloperidol 1 mg/kg, read-out: graded ED50, reversal of haloperidol-induced catalepsy
  ED50: 3 to 10 mg/kg
